Data from patent US7550456B2, “Substituted aryl cycloalkanoyl derivatives and methods of their use” (Wyeth, priority 2003, dated 2009).
Structures can show the parent of a compound that is named as a salt.

These compounds were tested against T1, human hNET (Homo sapiens, UniProt P23975) (assay: Norepinephrine (NE) uptake assay in MDCK-Net6 cells). Conditions: 1 μM test compound, [3H]NE uptake, dihydrochloride, 1 µM.
T1 construct: expressed in transfected cells; host or cells: MDCK-Net6 (MDCK cells, stably transfected)
T1 sequence (P23975 whole entry): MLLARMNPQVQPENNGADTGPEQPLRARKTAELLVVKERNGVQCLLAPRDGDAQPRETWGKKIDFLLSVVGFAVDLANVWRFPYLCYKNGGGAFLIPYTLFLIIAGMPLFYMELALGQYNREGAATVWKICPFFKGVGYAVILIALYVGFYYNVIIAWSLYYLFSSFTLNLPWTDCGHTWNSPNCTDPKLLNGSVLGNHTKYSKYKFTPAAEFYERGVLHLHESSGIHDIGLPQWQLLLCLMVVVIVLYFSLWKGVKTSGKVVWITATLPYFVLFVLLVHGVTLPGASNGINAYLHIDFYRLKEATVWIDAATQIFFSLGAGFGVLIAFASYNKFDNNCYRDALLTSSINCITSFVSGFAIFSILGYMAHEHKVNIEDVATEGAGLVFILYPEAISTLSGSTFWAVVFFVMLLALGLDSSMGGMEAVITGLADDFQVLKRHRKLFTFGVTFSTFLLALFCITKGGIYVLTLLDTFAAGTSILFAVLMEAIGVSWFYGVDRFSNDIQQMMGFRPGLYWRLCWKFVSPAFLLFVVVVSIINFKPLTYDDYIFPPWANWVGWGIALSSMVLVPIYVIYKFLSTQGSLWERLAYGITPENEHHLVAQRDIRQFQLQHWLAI
Format: cell-based
Description: Cells were plated at 300,000/T75 flask and cells were split twice weekly. […] Cells were plated at 250,000 cells/T75 flask and split twice weekly.
Norepinephrine (NE) Uptake Assay
On day 1, cells were plated at 3,000 cells/well in growth medium and maintained in a cell incubator (37° C., 5% CO2). On day 2, growth medium was replaced with 200 μl of assay buffer (25 mM HEPES; 120 mM NaCl; 5 mM KCl; 2.5 mM CaCl2; 1.2 mM MgSO4; 2 mg/ml glucose (pH 7.4, 37° C.)) containing 0.2 mg/ml ascorbic acid and 10 μM pargyline. Plates containing cells with 200 μl of assay buffer were equilibrated for 10 minutes at 37° C. prior to addition of compounds. A stock solution of desipramine was prepared in DMSO (10 mM) and delivered to triplicate wells containing cells for a final test concentration of 1 μM. Data from these wells were used to define non-specific NE uptake (minimum NE uptake). Test compounds were prepared in DMSO (10 mM) and diluted in assay buffer according to test range (1 to 10,000 nM). Twenty-five microliters of assay buffer (maximum NE uptake) or test compound were added directly to triplicate wells containing cells in 200 μl of assay buffer. The cells in assay buffer with test compounds were incubated for 20 minutes at 37° C. […] The reaction was terminated by decanting the supernatant from the plate. The plates containing cells were washed twice with 200 μl assay buffer (37° C.) to remove free radioligand. The plates were then inverted, left to dry for 2 minutes, then reinverted and air-dried for an additional 10 minutes. The cells were lysed in 25 μl of 0.25 N NaOH solution (4° C.), placed on a shake table and vigorously shaken for 5 minutes. After cell lysis, 75 μl of scintillation cocktail was added to each well and the plates were sealed with film tape. The plates were returned to the shake table and vigorously shaken for a minimum of 10 minutes to ensure adequate partitioning of organic and aqueous solutions. The plates were counted in a Wallac Microbeta counter (PerkinElmer) to collect the raw cpm data.
For each experiment, a data stream of cpm values collected from the Wallac Microbeta counter was downloaded to a Microsoft Excel statistical application program. Calculations of EC50 values were made using the transformed-both-sides logistic dose response program written by Wyeth Biometrics Department.
In the case of `OC1([C@H](CN2CCNCC2)c2cccc(OC(F)(F)F)c2)CCCCC1` [Example 243, 1-{(1S)-2-piperazin-1-yl-1-[3-(trifluoromethoxy)phenyl]ethyl}cyclohexanol dihydrochloride], the “% Inhibition @ 1 μM (hNET)” value is reported as 91%.

Same assay, conditions: 1 μM test compound, [3H]NE uptake, read-out: % Inhibition @ 1 μM (hNET)
`COc1cc(C(CN2CCN(C)CC2)C2(O)CCCCC2)ccc1OCc1ccc(Br)cc1F` (stereo not drawn) [Example 447, 1-[1-{4-[(4-bromo-2-fluorobenzyl)oxy]-3-methoxyphenyl}-2-(4-methylpiperazin-1-yl)ethyl]cyclohexanol] gave an inhibition at 1 µM of 97%.
With `C[C@H]1CN(C[C@H](c2cccc(OC(F)(F)F)c2)C2(O)CCCCC2)CCN1` [Example 348, 1-{(1S)-2-[(3S)-3-methylpiperazin-1-yl]-1-[3-(trifluoromethoxy)phenyl]ethyl}cyclohexanol dihydrochloride] the inhibition at 1 µM was 91%.
For `CC#Cc1ccc(C(CN2CCNCC2)C2(O)CCCCC2)cc1` (stereo not drawn) [Example 164, 1-[2-piperazin-1-yl-1-(4-prop-1-ynylphenyl)ethyl]cyclohexanol dihydrochloride], the inhibition at 1 µM was 56%.
`OC1(C(CN2CCNCC2)c2ccc(-c3cc(Cl)cc(Cl)c3)cc2)CCC1` (stereo not drawn) [Example 185, 1-[1-(3′,5′-dichloro-1,1′-biphenyl-4-yl)-2-piperazin-1-ylethyl]cyclobutanol dihydrochloride] was tested, and the inhibition at 1 µM was 27%.
For `C=Cc1ccc(C(CN2CCNCC2)C2(O)CCCCC2)cc1` (stereo not drawn) [Example 163, 1-[2-piperazin-1-yl-1-(4-vinylphenyl)ethyl]cyclohexanol dihydrochloride], the inhibition at 1 µM was 17%.
Work on `C[C@@H]1CN(C[C@H](c2cccc(OC(F)(F)F)c2)C2(O)CCCCC2)C[C@H](C)N1C` [Example 368, 1-{(1S)-1-[3-(trifluoromethoxy)phenyl]-2-[(3R,5S)-3,4,5-trimethylpiperazin-1-yl]ethyl}cyclohexanol dihydrochloride] yielded an inhibition at 1 µM of 93%.
`C[C@@H]1CN(C[C@H](c2cccc(OC(F)(F)F)c2)C2(O)CCCCC2)CCN1C` [Example 370, 1-{(1S)-2-[(3R)-3,4-dimethylpiperazin-1-yl]-1-[3-(trifluoromethoxy)phenyl]ethyl}cyclohexanol dihydrochloride] gave an inhibition at 1 µM of 79%.
Work on `OC1(C(CN2CCNCC2)c2cccc(-c3ccc(Cl)c(Cl)c3)c2)CCCCC1` (stereo not drawn) [Example 135, 1-[1-(3′,4′-dichloro-1,1′-biphenyl-3-yl)-2-piperazin-1-ylethyl]cyclohexanol dihydrochloride] yielded an inhibition at 1 µM of 65%.
`CN1CCN(CC(c2ccc(OCc3cccc(C(F)(F)F)c3)cc2)C2(O)CCCCC2)CC1` (stereo not drawn) [Example 439, 1-[2-(4-methylpiperazin-1-yl)-1-(4-{[3-(trifluoromethyl)benzyl]oxy}phenyl)ethyl]cyclohexanol dihydrochloride] gave an inhibition at 1 µM of 79%.
Compound `CN1CCN(CC(c2ccc(OCc3ccccc3C(F)(F)F)c(Cl)c2)C2(O)CCCCC2)CC1` (stereo not drawn) [Example 422, 1-[1-(3-chloro-4-{[2-(trifluoromethyl)benzyl]oxy}phenyl)-2-(4-methylpiperazin-1-yl)ethyl]cyclohexanol dihydrochloride] has an inhibition at 1 µM of 20%.
In the case of `COc1cc(C(CN2CCNCC2)C2(O)CCCCC2)ccc1OCc1ccccc1` (stereo not drawn) [Example 442, 1-{1-[4-(benzyloxy)-3-methoxyphenyl]-2-piperazin-1-ylethyl}cyclohexanol dihydrochloride], the inhibition at 1 µM is reported as 57%.
`COc1cc(C(CN2CCNCC2)C2(O)CCCCC2)ccc1OCc1ccc(Br)cc1F` (stereo not drawn) [Example 446, 1-(1-{4-[(4-bromo-2-fluorobenzyl)oxy]-3-methoxyphenyl}-2-piperazin-1-ylethyl)cyclohexanol] was tested, and the inhibition at 1 µM was 69%.
With `C[C@@H]1CCC(O)(C(CN2CCN(C)CC2)c2cccc(OC(F)(F)F)c2)C1` (stereo partly drawn) [Example 395, (3R)-3-methyl-1-{2-(4-methylpiperazin-1-yl)-1-[3-(trifluoromethoxy)phenyl]ethyl}cyclopentanol dihydrochloride] the inhibition at 1 µM was 92%.
In the case of `C[C@H]1CN(C[C@H](c2cccc(OC(F)(F)F)c2)C2(O)CCCCC2)CCN1C` [Example 349, 1-{(1S)-2-[(3S)-3,4-dimethylpiperazin-1-yl]-1-[3-(trifluoromethoxy)phenyl]ethyl}cyclohexanol dihydrochloride], the inhibition at 1 µM is reported as 82%.
Work on `OC1(C(CN2CCNCC2)c2ccc(CCc3ccccc3)cc2)CCCCC1` (stereo not drawn) [Example 409, 1-{1-[4-(2-phenylethyl)phenyl]-2-piperazin-1-ylethyl}cyclohexanol dihydrochloride] yielded an inhibition at 1 µM of 62%.
With `OC1(C(CN2CCNCC2)c2ccc(OCc3ccc(C(F)(F)F)cc3)c(F)c2)CCCCC1` (stereo not drawn) [Example 415, 1-[1-(3-fluoro-4-{[4-(trifluoromethyl)benzyl]oxy}phenyl)-2-piperazin-1-ylethyl]cyclohexanol dihydrochloride] the inhibition at 1 µM was 84%.
Compound `OC1(C(CN2CCNCC2)c2ccc(OCCc3cccc4ccccc34)cc2)CCCCC1` (stereo not drawn) [Example 464, 1-(1-{4-[2-(1-naphthyl)ethoxy]phenyl}-2-piperazin-1-ylethyl)cyclohexanol dihydrochloride] has an inhibition at 1 µM of 33%.
Compound `COc1cc(C(CN2CCNCC2)C2(O)CCCCC2)ccc1OCc1ccc(C(F)(F)F)cc1` (stereo not drawn) [Example 448, 1-[1-(3-methoxy-4-{[4-(trifluoromethyl)benzyl]oxy}phenyl)-2-piperazin-1-ylethyl]cyclohexanol dihydrochloride] has an inhibition at 1 µM of 78%.
`OC1([C@H](CN2CCN3CCCCC3C2)c2cccc(OC(F)(F)F)c2)CCCCC1` (stereo partly drawn) [Example 371, 1-{(1S)-2-(octahydro-2H-pyrido[1,2-a]pyrazin-2-yl)-1-[3-(trifluoromethoxy)phenyl]ethyl}cyclohexanol dihydrochloride] was tested, and the inhibition at 1 µM was 78%.
With `CC(C)COc1ccc(C(CN2CCNCC2)C2(O)CCCCC2)cc1OC(F)(F)F` (stereo not drawn) [Example 406, 1-{1-[4-isobutoxy-3-(trifluoromethoxy)phenyl]-2-piperazin-1-ylethyl}cyclohexanol dihydrochloride] the inhibition at 1 µM was 22%.
For `CC#Cc1cccc(C(CN2CCNCC2)C2(O)CCCCC2)c1` (stereo not drawn) [Example 300, 1-[2-piperazin-1-yl-1-(3-prop-1-ynylphenyl)ethyl]cyclohexanol dihydrochloride], the inhibition at 1 µM was 38%.
For `COc1cccc(-c2ccc(C(CN3CCN(C)CC3)C3(O)CCCCC3)cc2)c1` (stereo not drawn) [Example 179, 1-[1-(3′-methoxy-1,1′-biphenyl-4-yl)-2-(4-methylpiperazin-1-yl)ethyl]cyclohexanol dihydrochloride], the inhibition at 1 µM was 27%.
Work on `COc1ccc(CCOc2ccc(C(CN3CCN(C)CC3)C3(O)CCCCC3)cc2)cc1` (stereo not drawn) [Example 466, 1-[1-{{4-[2-(4-methoxyphenyl)ethoxy]phenyl}-2-(4-methylpiperazin-1-yl)ethyl]cyclohexanoldihydrochloride] yielded an inhibition at 1 µM of 20%.
`CN1CCN(CC(c2ccc(OCc3ccccc3)c(C#N)c2)C2(O)CCCCC2)CC1` (stereo not drawn) [Example 267, 2-(benzyloxy)-5-[1-(1-hydroxycyclohexyl)-2-(4-methylpiperazin-1-yl)ethyl]benzonitrile dihydrochloride] showed an inhibition at 1 µM of 89%.

Same assay, conditions: MDCK-Net6, read-out: % Inhibition @ 1 μM (hNET), 1 μM test compound, [3H]NE uptake
Work on `CN1CCN(CC(c2cccc(OC(F)(F)F)c2)C2(O)CCCCC2)CC1` (stereo not drawn) [Example 24, 1-{2-(4-methylpiperazin-1-yl)-1-[3-(trifluoromethoxy)phenyl]ethyl}cyclohexanol dihydrochloride] yielded an inhibition at 1 µM of 85%.

Same assay, conditions: [3H]NE uptake, test range 1 to 10,000 nM
`OC1(C(CN2CCNCC2)c2cccc(-c3ccc(Cl)c(Cl)c3)c2)CCCCC1` (stereo not drawn) [Example 135, 1-[1-(3′,4′-dichloro-1,1′-biphenyl-3-yl)-2-piperazin-1-ylethyl]cyclohexanol dihydrochloride] was tested, and the EC50 was 635 nM.
